# Reference: patent US9937151B2, “Carbapenem antibacterials with gram-negative activity” (priority 2010, dated 2018)
# System: G(−) bacterial strains
# Assay: Dilution antimicrobial susceptibility tests (MIC, NCCLS agar dilution / broth dilution)
# Assay type: cell-based, Gram-negative organisms
# Settings: unit assumed
# How it was run: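 Agar dilution on Mueller-Hinton agar at 10^4 CFU/spot and broth dilution at 5×10^5 CFU/well, per NCCLS M7-A5. Streptococci tested on Mueller-Hinton agar with 5% sheep blood. MIC taken as minimum inhibitory concentration; ATCC control strains run alongside.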
# [1] = strain #1 Acinetobacter calcoaceticus
# [2] = strain #2 Acinetobacter baumannii, Cf-R, Ci-R
# [3] = strain #3 Acinetobacter baumannii, Cf-R, Ci-R, Mp-I
# [4] = strain #4 Acinetobacter baumannii, Cf-R, Imp-I, CBPase
# [5] = strain #7 Enterobacter aerogenes
# [6] = strain #8 Enterobacter cloacae, Cf-R, B+
# [7] = strain #9 Enterobacter cloacae, Cf-R
# [8] = strain #10 Escherichia coli, Ci-R
# [9] = strain #11 Escherichia coli, Ci-R, AmpC
# [10] = strain #15 Klebsiella pneumoniae
# [11] = strain #16 Moraxella catarrhalis
# [12] = strain #21 Providencia rettgeri
# [13] = strain #22 Salmonella typhimurium
# [14] = strain #25 Shigella dysenteriae
# [15] = strain #28 Stenotrophomonas maltophilia
Compound,MIC [1] [µg/mL],MIC [2] [µg/mL],MIC [3] [µg/mL],MIC [4] [µg/mL],MIC (strain #5 Citrobacter diversus) [µg/mL],MIC (strain #6 Citrobacter freundii) [µg/mL],MIC [5] [µg/mL],MIC [6] [µg/mL],MIC [7] [µg/mL],MIC [8] [µg/mL],MIC [9] [µg/mL],MIC (strain #12 Escherichia coli) [µg/mL],MIC (strain #13 Escherichia coli) [µg/mL],MIC (strain #14 Klebsiella oxytoca) [µg/mL],MIC [10] [µg/mL],MIC [11] [µg/mL],MIC (strain #17 Morganella Morganii) [µg/mL],MIC (strain #18 Morganella Morganii) [µg/mL],MIC (strain #19 Proteus vulgaris) [µg/mL],MIC (strain #20 Proteus mirabilis) [µg/mL],also measured
C[C@@H](O)C1C(=O)N2C(C(=O)O)=C(CN3CC[C@H](C(=O)NCC(N)=O)C3)[C@H](C)C12 (stereo partly shown) [Compound 137],1,2,8,2,0.5,1,2,0.5,1,0.5,0.5,0.5,1,1,1,≤ 0.008,4,4,2,0.5,MIC [12]: 2 µg/mL; MIC [13]: 1 µg/mL; MIC (strain #23 Serratia marcescens): 2 µg/mL; MIC (strain #24 Serratia marcescens): 2 µg/mL; MIC [14]: 1 µg/mL; MIC (strain #26 Shigella sonnei): 1 µg/mL; MIC (strain #27 Shigella flexneri): 0.5 µg/mL; MIC [15]: 0.5 µg/mL
C[C@@H](O)C1C(=O)N2C(C(=O)O)=C(CN3CC[C@H](C(=O)NC(=N)N)C3)[C@H](C)C12 (stereo partly shown) [Compound 143],8,32,32,> 32,0.5,1,4,0.5,1,0.5,0.5,0.5,0.5,1,2,0.063,16,8,8,1,MIC [12]: 2 µg/mL; MIC [13]: 0.5 µg/mL; MIC (strain #23 Serratia marcescens): 1 µg/mL; MIC (strain #24 Serratia marcescens): 2 µg/mL; MIC [14]: 1 µg/mL; MIC (strain #26 Shigella sonnei): 1 µg/mL; MIC (strain #27 Shigella flexneri): 0.5 µg/mL; MIC [15]: 4 µg/mL
C[C@@H](O)C1C(=O)N2C(C(=O)O)=C(CN3CC[C@H](O)C3)[C@H](C)C12 (stereo partly shown) [Compound 146],1,1,2,4,0.5,0.5,2,0.25,1,0.25,0.25,0.5,0.5,1,1,0.016,8,8,4,0.5,MIC [12]: 2 µg/mL; MIC [13]: 0.5 µg/mL; MIC (strain #23 Serratia marcescens): 2 µg/mL; MIC (strain #24 Serratia marcescens): 2 µg/mL; MIC [14]: 0.5 µg/mL; MIC (strain #26 Shigella sonnei): 0.5 µg/mL; MIC (strain #27 Shigella flexneri): 0.25 µg/mL; MIC [15]: 0.5 µg/mL
C[C@@H](O)C1C(=O)N2C(C(=O)O)=C(CN3CC[C@@H](N)C3)[C@H](C)C12 (stereo partly shown) [Compound 151],0.25,0.5,2,1,0.25,0.5,2,0.25,0.5,0.25,0.25,0.25,0.5,0.5,0.5,≤ 0.008,4,4,1,0.5,MIC [12]: 2 µg/mL; MIC [13]: 0.5 µg/mL; MIC (strain #23 Serratia marcescens): 1 µg/mL; MIC (strain #24 Serratia marcescens): 1 µg/mL; MIC [14]: 0.5 µg/mL; MIC (strain #26 Shigella sonnei): 0.5 µg/mL; MIC (strain #27 Shigella flexneri): 0.25 µg/mL; MIC [15]: 0.25 µg/mL
C[C@@H](O)C1C(=O)N2C(C(=O)O)=C(CN3CC[C@@H](NC(=N)N)C3)[C@H](C)C12 (stereo partly shown) [Compound 156],0.5,2,4,2,0.5,0.5,2,0.5,1,0.5,0.5,0.5,0.5,1,1,≤ 0.008,4,4,2,0.5,MIC [12]: 2 µg/mL; MIC [13]: 1 µg/mL; MIC (strain #23 Serratia marcescens): 2 µg/mL; MIC (strain #24 Serratia marcescens): 2 µg/mL; MIC [14]: 1 µg/mL; MIC (strain #26 Shigella sonnei): 0.5 µg/mL; MIC (strain #27 Shigella flexneri): 0.5 µg/mL; MIC [15]: 0.5 µg/mL
C[C@@H](O)C1C(=O)N2C(C(=O)O)=C(CN3CC[C@H](NC(=O)CNS(N)(=O)=O)C3)[C@H](C)C12 (stereo partly shown) [Compound 163],2,4,8,16,0.5,1,2,0.5,1,0.5,0.5,0.5,0.5,1,1,≤ 0.008,8,8,4,0.5,MIC [12]: 1 µg/mL; MIC [13]: 0.5 µg/mL; MIC (strain #23 Serratia marcescens): 2 µg/mL; MIC (strain #24 Serratia marcescens): 2 µg/mL; MIC [14]: 1 µg/mL; MIC (strain #26 Shigella sonnei): 0.5 µg/mL; MIC (strain #27 Shigella flexneri): 0.5 µg/mL; MIC [15]: 1 µg/mL
C[C@@H](O)C1C(=O)N2C(C(=O)O)=C(CN3CCC(NC(=O)CNC(=N)N)C3)[C@H](C)C12 (stereo partly shown) [Compound 167],32,> 32,> 32,> 32,1,2,4,2,2,1,1,1,1,2,2,2,8,8,4,2,MIC [12]: 2 µg/mL; MIC [13]: 2 µg/mL; MIC (strain #23 Serratia marcescens): 2 µg/mL; MIC (strain #24 Serratia marcescens): 4 µg/mL; MIC [14]: 1 µg/mL; MIC (strain #26 Shigella sonnei): 1 µg/mL; MIC (strain #27 Shigella flexneri): 1 µg/mL; MIC [15]: 16 µg/mL
